Data from patent US11459375B2, “Cyclic peptides for the treatment of Graves' disease” (advanceCOR GmbH, priority 2017, dated 2022).
Peptide text beside a SMILES is read from it.

Assays:
Ad-TSHR-immunized mice = experiment: ventricular myocardial volumes from digitized cross-sectional LV areas; assay type: in vivo, BALB/c mice; details: 1 mg/kg IV 4-weekly, end of experiment
Experimental: In FIG. 7 the effect of the peptide therapy on heart rates at various times during the experiment (A), and on heart weights (B) and cardiac ventricular volumes (C) at the end of the experiment were evaluated in all animals. The measurements were carried out in Ad-TSHR-immunized mice treated by either 4-weekly injections with vehicle (0.9% NaCl, “Graves' no therapy”, n=25 mice), or administrations of 1 mg/kg body weight of peptide of the invention 836 (12 mice), or of peptide 829 (13 mice), or TSHR-Fc (18 mice). In addition, age-matched immunologically naïve unimmunized mice (“healthy”, 19 animals) were investigated. Data are represented as mean±SEM. […]
After euthanasia, dissection of the thyroid glands was performed under a stereomicroscope, as described before (22). […] Thyroid volumes (mm^3) were calculated from the sum of the areas of each section over the whole cutting region. Myocardial volumes (mm^3) were calculated in a similar way as described for thyroid glands from the sum of the areas of each section over whole cutting region (5 to 6 slides, depending on respective size of the hearts). […]

[1] = tested on: immunologically naïve mice; details: mouse, in vivo, iv, 1 mg/kg
Experimental: BALB/c mice were adapted for at least one week to start experiments at the age of 12 weeks. Animals were kept as described before. […] Peptides (either 1 mg/kg body weight or NaCl vehicle control) were given by IV injection into a tail vein of these naïve mice (n=5 per group), and then continued at 4-weekly intervals for 6 months, as described before for the therapeutic study in immunized mice. Serum samples were taken at identical intervals.
1) “3rd generation assay”: Antibodies against TSHR were detected by a commercially available 3rd generation enzyme immunoassay provided by RSR Limited, Avenue Park, Pentwyn, Cardiff, U.K., in which the of the human Graves patient-derived M22 monoclonal antibody and serum antibodies compete for binding sites on immobilized TSHR. […] The assay was performed using 30 μl 1:10 (PBS) diluted serum in at least double determination according to the manufacturer's instructions.

Molecule | ventricular myocardial volumes (Ad-TSHR-immunized mice) | anti-TSHR antibody titers in naive mice [1] | generation of anti-TSHR antibodies [1]
CC[C@H](C)[C@@H]1NC(=O)[C@H](C(C)C)NC(=O)[C@H]([C@@H](C)O)NC(=O)[C@H](CC(C)C)NC(=O)[C@H](Cc2ccc(O)cc2)NC(=O)[C@H](CCCCN)NC(=O)[C@H](CC(N)=O)NC(=O)[C@H](CCCCN)NC(=O)[C@H](CC(N)=O)NC(=O)[C@H](CC(C)C)NC(=O)[C@H](Cc2ccc(O)cc2)NC(=O)[C@H](C(C)C)NC(=O)[C@H](C)NC(=O)[C@H](CC(=O)O)NC(=O)[C@H](CC(C)C)NC(=O)[C@H](CCCCN)NC(=O)[C@H]([C@@H](C)O)NC(=O)CNC(=O)[C@H](CC(N)=O)NC(=O)[C@H](Cc2ccccc2)NC(=O)[C@H](C)NC(=O)[C@H](Cc2ccc(O)cc2)NC(=O)CNC(=O)[C@H](CC(=O)O)NC1=O [peptide 836] (cyclo(GYAFNGTKLDAVYLNKNKYLTVID)) | significantly reduced ventricular myocardial volumes | below background | not observed in any of the 6 animals
TSHR-Fc: fusion protein: first 289 amino acids of human TSH receptor (A-subunit), GGR linker and Fc portion of human IgG2 | significantly reduced ventricular myocardial volumes | – | –
